Marks after values point to notes of the source that are not given here.
Key:
Bax [1] = test: Expression of Bax in hippocampus, Aβ1-40 dementia model; assay type: in vivo, rat; details: nimodipine 0.05 mg·kg^−1 i.v., 7 days; 10 rats per group
Description: (§1) This experiment was carried out employing an Alzheimer Dementia (AD) model. 70 rats were divided into 7 groups consisting of 10 rats each and were anesthetized with chloral hydrate. Except for a placebo group, the remaining 6 groups were rendered dementia models by injecting 4 μg of beta-amyloid (Aβ1-40) and 1 μg of Ibotenic acid (IBA) into the hippocampus CA1 region of each rat. The placebo group was infused with an equal amount of physiological saline, instead of beta-amyloid and Ibotenic acid (IBA).
(§2) The above-mentioned dementia model groups were subdivided into a control group to which physiological saline was administered, four experimental groups to which ginsenoside Rg2 was administered and a comparative group to which a medical dementia therapeutic agent, nimodipine was administered. Each group received the corresponding respective reagents via intravenous injection for 7 days, once a day, according to the dosages set forth in Table 7 below. Herein, reagents, which are administered to experimental groups, are isomeric C-20(S) ginsenoside Rg2 and C-20(R) ginsenoside Rg2, and mixed-type C-20(SR) ginsenoside Rg2 (in the following Tables, referred to as S, R and SR, respectively).
(§3) In addition, 24 hours after examination of learning-memory ability, the front and rear of the injected site of the hippocampus CA1 region were successively sliced and subjected to Niss1 staining, HE staining, and chemical examination of immune tissues and in situ cell death, thereby observing morphological changes of hippocampus neuron cell zones, necrosis, degree of cell loss, rate of cell death, and degree of expression of Bax/Bcl-2 and C-fos genes.

[2] = test system: multiple infarct dementia (MID) model rats; test: Y-shaped electronic maze test of learning-memory ability, multiple infarct dementia (MID) model; assay type: in vivo, rat; design: key: stimuli needed for 9-10 successive correct responses (memory: 24 h later); details: nimodipine 0.05 mg·kg^−1 i.v., once a day, 7 days
Description: On day 6 of respective reagent administration, animals were subjected to a Y-shaped electronic maze test. Learning-memory ability of rats was determined according to the following method. Firstly, the order of learning is taken as the number of stimulus times necessary for 9 to 10-time successive and exact response of rats. After 24 hours, the stimulus times necessary for 9 to 10-time successive and exact response of rats were recorded again as the order of memory. Based on the recordings thus obtained, a t-test was made between respective groups.
This experiment was carried out employing a multiple infarct dementia (MID) model. 56 rats were divided into 7 groups consisting of 8 rats each and were anesthetized with 10% chloral hydrate. Except for a placebo group, the remaining 6 groups were established as dementia models by injecting 0.13 ml/100 g of a composite thrombosis-inducing agent into the carotid artery of each rat, restoring anatomical structures thereof and suturing skins along layers. The placebo group was injected with an equal amount of physiological saline, instead of the composite thrombosis-inducing agent. […]
On day 6 of respective reagent administration, learning-memory ability of animals was determined according to the same manner as in Experimental Example 1.

Calpain II = test: Calpain II-positive neurons in CPU region, MID model; assay type: in vivo, rat; details: nimodipine 0.05 mg·kg^−1 i.v., once a day, 7 days
Description: (§4) This experiment was carried out employing a multiple infarct dementia (MID) model. 56 rats were divided into 7 groups consisting of 8 rats each and were anesthetized with 10% chloral hydrate. Except for a placebo group, the remaining 6 groups were established as dementia models by injecting 0.13 ml/100 g of a composite thrombosis-inducing agent into the carotid artery of each rat, restoring anatomical structures thereof and suturing skins along layers. The placebo group was injected with an equal amount of physiological saline, instead of the composite thrombosis-inducing agent.
as §2, with “The above” for “The above-mentioned”, “to” for “to the”, “Table 12” for “Table 7”, “following experiments,” for “following Tables,”, “respectively). […]” for “respectively).”

hippocampus nerve cells = test: TUNEL staining, in situ cell death (apoptosis), Aβ1-40 dementia model; assay type: in vivo, rat; details: nimodipine 0.05 mg·kg^−1 i.v., once a day, 7 days
Description: as §1
as §2, with “respectively). […]” for “respectively).”

C-fos = test: Expression of C-fos in hippocampus, Aβ1-40 dementia model; assay type: in vivo, rat; details: nimodipine 0.05 mg·kg^−1 i.v., 7 days; 10 rats per group
Description: as §1, §2, §3

Caspase-3 = test: Caspase-3-positive neurons in CPU region, MID model; assay type: in vivo, rat; details: nimodipine 0.05 mg·kg^−1 i.v., once a day, 7 days
Description: as §4
as §2, with “The above” for “The above-mentioned”, “to” for “to the”, “Table 12” for “Table 7”, “following experiments,” for “following Tables,”, “respectively). […]” for “respectively).”

PC12 cells = test: MTT metabolism after glutamic acid damage of PC12 cells; assay type: cell-based; details: nimodipine 5 pmol; 1 mmol/L glutamic acid, 20 hours; OD at 490 nm
Description: 100 μl/well of PC12 culture having a cell density of 10^5 cells/mL was inoculated into a 96-well plate and PC12 cells were allowed to adhere to walls of the plate. Wells were divided into 6 groups to which 6 wells were assigned each.
A serum-free medium was added to a non-treatment group, 1 mmol/L of a serum-free medium containing glutamic acid and an equal volume (1 mmol/L) of 20% 1,2-polyethylene glycol were added to a control group, 1 mmol/L of a serum-free medium containing glutamic acid and 0.1 mmol/L of respective structures of ginsenoside Rg2 were added to experimental groups, and 5 pmol of nimodipine, instead of ginsenoside Rg2, was added to a comparative group. Then, PC12 cells of respective groups were cultured at 37° C. for 20 hours.
20 μl/well of MTT (5 g/L) was added to respective groups and cells were continuously cultured at 37° C. for 4 hours. Then, the original medium was aspirated, and 0.1 ml/well of dimethyl sulfoxide (DMSO) was added to dissolve red granules. Next, optical density (OD) at 490 nm was measured using an enzyme-linked immuno-assay and then a t-test was made between groups.

Bcl-2 = test: Expression of Bcl-2 in hippocampus, Aβ1-40 dementia model; assay type: in vivo, rat; details: nimodipine 0.05 mg·kg^−1 i.v., 7 days; 10 rats per group
Description: as §1, §2, §3

glutamate (Glu) = test: Glu-positive neurons in CPU region, MID model; assay type: in vivo, rat; details: nimodipine 0.05 mg·kg^−1 i.v., once a day, 7 days
Description: as §4
as §2, with “The above” for “The above-mentioned”, “to” for “to the”, “Table 12” for “Table 7”, “following experiments,” for “following Tables,”, “respectively). […]” for “respectively).”

[3] = test system: hippocampus CA1 nerve cell bodies; test: Niss1 staining, loss of nerve cell bodies, Aβ1-40 dementia model; assay type: in vivo, rat; details: nimodipine 0.05 mg·kg^−1 i.v., once a day, 7 days
Description: as §1
as §2, with “respectively). […]” for “respectively).”

Bax [4] = test: Bax-positive neurons in CPU region, MID model; assay type: in vivo, rat; details: nimodipine 0.05 mg·kg^−1 i.v., once a day, 7 days
Description: as §4
as §2, with “The above” for “The above-mentioned”, “to” for “to the”, “Table 12” for “Table 7”, “following experiments,” for “following Tables,”, “respectively). […]” for “respectively).”

[5] = test system: Alzheimer Dementia (AD) model rats injected with beta-amyloid (Aβ1-40) and Ibotenic acid (IBA); test: Y-shaped electronic maze test of learning-memory ability, beta-amyloid (Aβ1-40) dementia model; assay type: in vivo, rat; design: key: number of stimuli needed for 9-10 successive correct responses; details: nimodipine 0.05 mg·kg^−1 i.v., once a day, 7 days
Description: as §1
as §2, with “Herein, reagents, which are administered to experimental groups, are isomeric C-20(S) ginsenoside Rg2 and C-20(R) ginsenoside Rg2, and mixed-type C-20(SR) ginsenoside Rg2 (in the following Tables, referred to as S, R and SR, respectively).” left out
On day 6 of respective reagent administration, animals were subjected to a Y-shaped electronic maze test. Learning-memory ability of rats was determined according to the following method. […] After 24 hours, the stimulus times necessary for 9 to 10-time successive and exact response of rats were recorded again as the order of memory. […]

COCCOC(=O)C1=C(C)NC(C)=C(C(=O)OC(C)C)C1c1cccc([N+](=O)[O-])c1 (centres unmarked) [Nimodipine, nimodipine, reference compound]
Expression Intensity of bax, count at grade + (Bax [1]): 7
Expression Intensity of bax, count at grade ++ (Bax [1]): 3
Expression Intensity of bax, count at grade +++ (Bax [1]): 0**
Expression Intensity of bax, count at grade − (Bax [1]): 0
Order of Memory [2]: 0.0 ± 0.0
Order of Learning ([2]; test on day 6): 2.5 ± 3.70
Number of Calpain II-positive cells (Calpain II): 3.9 ± 0.67
Rate of nerve cell death (hippocampus nerve cells): 19.83 ± 2.93
Expression Intensity of C-fos, count at grade + (C-fos): 3
Expression Intensity of C-fos, count at grade ++ (C-fos): 4
Expression Intensity of C-fos, count at grade +++ (C-fos): 3*
Expression Intensity of C-fos, count at grade − (C-fos): 0
Number of Caspase-3 positive cells (Caspase-3): 2.3 ± 2.72
MTT (OD) (PC12 cells): 0.086 ± 0.017
Expression Intensity of bcl-2, count at grade + (Bcl-2): 5
Expression Intensity of bcl-2, count at grade ++ (Bcl-2): 4
Expression Intensity of bcl-2, count at grade +++ (Bcl-2): 1**
Expression Intensity of bcl-2, count at grade − (Bcl-2): 0
Number of Glu-positive cells (glutamate (Glu)): 11.8 ± 3.89
Length of nerve cell body loss [3]: 259.14 ± 60.36 μm
Number of Bax-positive cells (Bax [4]): 3.2 ± 2.47
Order of Memory ([5]; 24 hours after learning): 4.10 ± 4.80
Order of Learning ([5]; test on day 6): 8.60 ± 4.58
